Activity calls are given as the source filed them. The rule behind the calls is not given here.
Tests used:
Plasmodium falciparum = assay: Antimalarial activity against multi drug-resistant Plasmodium falciparum K1 infected in human erythrocytes assessed as reduction in parasite growth preincubated for 24 hrs followed by [3H]hypoxanthine addition and measured after 18 hrs by scintillation counting method; format: functional, organism-based; details: K1, Erythrocyte
Vero = assay: Cytotoxicity against African green monkey Vero cells assessed as reduction in cell viability by tryphan blue exclusion method; format: cell-based; details: Chlorocebus sabaeus
[1] = test system: Mycobacterium tuberculosis; assay: Antimycobacterial activity against Mycobacterium tuberculosis H37Ra ATCC 25177; format: functional, organism-based
[2] = Selectivity index, ratio of IC50 for cytotoxicity against African green monkey Vero cells to IC50 for antimalarial activity against multi drug-resistant Plasmodium falciparum K1 infected in human erythrocytes; format: toxicity, cell-based; details: read-out: Ratio IC50

Structure (SMILES) | IC50 (Plasmodium falciparum) | IC50 (Vero) | Activity [1] | selectivity ratio [2]
C[C@H](CC(=O)C[C@H](C)C(=O)O)[C@H]1C[C@@H](O)[C@@]2(C)C3=C(C(=O)[C@@H](O)[C@]12C)[C@@]1(C)CCC(=O)C(C)(C)[C@@H]1CC3=O | ≥ 17 µM | ≥ 87 µM | inactive | 
CC(=O)O[C@@H]1C(=O)C2=C(C(=O)C[C@H]3C(C)(C)C(=O)CC[C@]23C)[C@]2(C)[C@H](O)C[C@H]([C@H](C)CC(=O)C[C@H](C)C(=O)O)[C@@]12C | ≥ 17 µM | ≥ 87 µM | inactive | 
C[C@H](CC[C@H](OC(=O)[C@@H](C)CC(=O)C[C@@H](C)[C@H]1C[C@@H](O)[C@@]2(C)C3=C(C(=O)C[C@]12C)[C@@]1(C)CCC(=O)C(C)(C)[C@@H]1CC3=O)[C@](C)(O)CO)[C@H]1CC[C@@]2(C)C3=CC[C@H]4C(C)(C)C(=O)CC[C@]4(C)C3=CC[C@]12C | 0.05 µM | 0.21 µM | inactive | 4.2
C[C@H](CC[C@H](OC(=O)[C@@H](C)CC(=O)C[C@@H](C)[C@H]1C[C@@H](O)[C@@]2(C)C3=C(C(=O)C[C@]12C)[C@@]1(C)CC[C@@H](O)C(C)(C)[C@@H]1CC3=O)[C@](C)(O)CO)[C@H]1CC[C@@]2(C)C3=CC[C@H]4C(C)(C)C(=O)CC[C@]4(C)C3=CC[C@]12C | 0.46 µM | 10 µM | inactive | 2.2
C[C@H](CC(=O)C[C@H](C)C(=O)O)[C@H]1C[C@@H](O)[C@@]2(C)C3=C(C(=O)C[C@]12C)[C@@]1(C)CC[C@@H](O)C(C)(C)[C@@H]1CC3=O | ≥ 17 µM | ≥ 87 µM | inactive | 
C[C@H](CC(=O)C[C@H](C)C(=O)O)[C@H]1C[C@@H](O)[C@@]2(C)C3=C(C(=O)C[C@]12C)[C@@]1(C)CCC(=O)C(C)(C)[C@@H]1CC3=O | ≥ 17 µM | ≥ 87 µM | inactive | 
C[C@H](CC(=O)C[C@H](C)C(=O)O)[C@H]1C[C@@H](O)[C@@]2(C)C3=C(C(=O)C[C@]12C)[C@@]1(C)CCC(=O)[C@@](C)(CO)[C@@H]1CC3=O | ≥ 17 µM | ≥ 87 µM | inactive | 

— ChEMBL document CHEMBL4699595, “Ganoweberianones A and B, Antimalarial Lanostane Dimers from Cultivated Fruiting Bodies of the Basidiomycete Ganoderma weberianum” (J Nat Prod, 2020)
